One experiment has as its target T1, α-glucosidase (sucrase) (Rattus norvegicus, UniProt P23739).
T1 construct: The resulting supernatant was separated as a crude enzyme stock solution; tissue SIGMA; host or cells: rat intestine (acetone powder)
Kind of experiment: Measurement of sucrase (α-glucosidase) inhibiting activity with crude enzyme from rat intestinal acetone powder. Type of experiment: biochemical. The following applies: for IC50: crude rat intestinal enzyme, sucrose substrate, 0.1 M maleate buffer pH 6.0, 37° C., 30 minutes; for α-glucosidase inhibiting activity (in words): summary of Table 1 results. The procedure: One gram intestinal acetone powder rat (manufactured by SIGMA) was suspended in 10 mL of 0.1 M maleate buffer, pH 6.0 and then centrifuged (3,000 rpm, 4° C., 20 min.). The resulting supernatant was separated as a crude enzyme stock solution. This crude enzyme stock solution was diluted at the degree of dilution previously determined in the following control test, to prepare a crude enzyme dilution which was then used in the subsequent measurement of sucrase inhibiting activity.
A buffer solution 50 μL and 100 μL of 74 mM aqueous sucrose solution were pipetted into each test tube and pre-heated for 3 minutes in a water bath at 37° C. A diluted crude enzyme stock solution 50 μL was added to this test tube and reacted at 37° C. for 30 minutes. After the reaction was finished, 800 μL purified water was added. The mixture was further heated at 80° C. for 3 minutes thereby inactivating the enzyme to terminate the reaction. The concentration of glucose in the reaction solution was quantified by using a commercial kit/mutarotase-glucose oxidase method (Glucose CII Test Wako, manufactured by Wako Pure Chemical Industries, Ltd.).
As the test substance, the reticulanol of the present invention, and Salacinol and kotalanol for comparison, all of which were obtained in Preparative Example 2 above, were used. A solution […] of the test substance in 0.1 M maleate buffer, pH 6.0 was introduced into each test tube (concentration of the test substance: 3 to 30 μg/mL), and 100 μL of 74 mM aqueous sucrose was pipetted into each test tube and pre-heated for 3 minutes in a water bath at 37° C. The above crude enzyme dilution 50 μL was added to each test tube and reacted at 37° C. for 30 minutes. After the reaction was finished, 800 μL purified water was added to each test tube, and the mixture was further heated at 80° C. for 3 minutes thereby inactivating the enzyme to terminate the reaction.
After the reaction was terminated, the concentration of glucose in the reaction solution was quantified by using the glucose CII Test Wako (manufactured by Wako Pure Chemical Industries, Ltd.).
An aqueous sucrose solution 100 μL was mixed with 50 μL of each test substance dissolved in a maleate buffer. Purified water 800 μL was added thereto and then 50 μL crude enzyme dilution was added thereto, and immediately the mixture was heated to […] to inactivate the enzyme. Thereafter, the concentration of glucose in the reaction solution was measured by the same method as described above.
Sucrase inhibiting activity was calculated from the following equation: Sucrase inhibiting activity (%)={(Glc0−Glcx)/Glc0}×100 wherein Glcx is a value obtained by subtracting the glucose concentration in the corresponding blank test from the concentration of glucose in the test sample, and Glc0 is the glucose concentration in the corresponding control.
An inhibition curve was prepared by plotting the inhibiting activity (%) calculated by the above equation on the ordinate and the concentration of each test substance (μg/mL) on the abscissa. From this inhibition curve, 50% inhibition concentration (IC50 value) was calculated as an indicator of sucrase inhibiting activity.

A further experiment has as its system α-glucosidase. The following applies: compared with marketed synthetic medicine Glucobay; cited from earlier work.

Results on 3 compounds are retold here after US20070037870A1, “Novel substance having alpha-glucosidase inhibiting activity and food containing the same” (MORISHITA JINTAN CO., LTD., priority 2003, published 2007).

Each structure is given as a SMILES string.

T1 sequence (P23739 whole entry): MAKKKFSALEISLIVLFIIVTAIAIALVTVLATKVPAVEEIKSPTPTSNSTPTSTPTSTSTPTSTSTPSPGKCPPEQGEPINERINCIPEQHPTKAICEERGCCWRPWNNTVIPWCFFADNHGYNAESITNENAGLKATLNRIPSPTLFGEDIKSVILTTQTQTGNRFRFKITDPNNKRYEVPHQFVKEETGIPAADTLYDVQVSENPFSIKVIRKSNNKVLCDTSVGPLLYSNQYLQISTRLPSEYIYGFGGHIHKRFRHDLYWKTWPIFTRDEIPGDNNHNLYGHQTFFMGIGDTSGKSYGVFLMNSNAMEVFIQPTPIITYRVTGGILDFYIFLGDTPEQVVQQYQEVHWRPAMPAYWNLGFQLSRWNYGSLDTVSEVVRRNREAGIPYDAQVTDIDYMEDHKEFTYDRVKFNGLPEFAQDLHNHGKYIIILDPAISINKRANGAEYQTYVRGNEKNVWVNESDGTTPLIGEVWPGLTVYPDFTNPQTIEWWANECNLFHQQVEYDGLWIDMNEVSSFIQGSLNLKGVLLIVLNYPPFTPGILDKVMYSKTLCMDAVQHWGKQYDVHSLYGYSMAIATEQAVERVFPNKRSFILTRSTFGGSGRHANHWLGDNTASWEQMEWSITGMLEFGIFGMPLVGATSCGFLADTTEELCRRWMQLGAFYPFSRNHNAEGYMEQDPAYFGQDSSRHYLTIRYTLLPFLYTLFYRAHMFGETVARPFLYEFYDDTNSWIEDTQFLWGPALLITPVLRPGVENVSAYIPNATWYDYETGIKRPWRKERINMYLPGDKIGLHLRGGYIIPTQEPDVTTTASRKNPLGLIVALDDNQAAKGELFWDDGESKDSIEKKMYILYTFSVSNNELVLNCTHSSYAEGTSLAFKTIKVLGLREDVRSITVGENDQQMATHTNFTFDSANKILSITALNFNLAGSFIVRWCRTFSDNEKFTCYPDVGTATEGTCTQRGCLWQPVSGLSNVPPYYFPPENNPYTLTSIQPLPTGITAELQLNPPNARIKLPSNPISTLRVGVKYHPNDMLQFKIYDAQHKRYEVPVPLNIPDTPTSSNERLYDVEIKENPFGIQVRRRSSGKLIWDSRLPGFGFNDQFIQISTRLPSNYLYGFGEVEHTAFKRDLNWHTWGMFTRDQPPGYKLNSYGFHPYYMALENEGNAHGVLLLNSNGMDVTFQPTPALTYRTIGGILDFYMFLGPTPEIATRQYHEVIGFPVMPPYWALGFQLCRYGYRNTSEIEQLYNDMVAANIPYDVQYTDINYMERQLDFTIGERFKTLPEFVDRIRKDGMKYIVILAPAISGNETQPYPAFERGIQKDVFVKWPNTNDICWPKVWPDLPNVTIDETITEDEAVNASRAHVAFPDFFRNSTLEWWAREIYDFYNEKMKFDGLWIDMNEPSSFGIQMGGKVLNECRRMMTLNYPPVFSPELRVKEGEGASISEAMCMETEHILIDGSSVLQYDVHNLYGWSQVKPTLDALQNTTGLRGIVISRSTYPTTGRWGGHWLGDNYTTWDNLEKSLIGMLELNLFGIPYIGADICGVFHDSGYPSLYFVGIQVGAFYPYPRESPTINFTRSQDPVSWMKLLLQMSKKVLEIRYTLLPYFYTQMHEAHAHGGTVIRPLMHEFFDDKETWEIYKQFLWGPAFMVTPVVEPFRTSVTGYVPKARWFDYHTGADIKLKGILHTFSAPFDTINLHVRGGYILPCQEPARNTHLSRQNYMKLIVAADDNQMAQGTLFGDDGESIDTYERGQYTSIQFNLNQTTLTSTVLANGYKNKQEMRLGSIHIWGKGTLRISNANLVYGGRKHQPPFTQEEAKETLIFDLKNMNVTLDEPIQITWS

Broadly, the IC50 is the midpoint of a concentration-inhibition curve. The low end stands for higher potency, the high end for lower potency. In the case of `O=S(=O)([O-])OC(C(O)C[S+]1CC(O)C(O)C1CO)C(O)C(O)CO` (stereo not drawn) [Reticulanol, reticulanol], the “α-glucosidase inhibiting activity relative to Salacinol” value at α-glucosidase (sucrase) (compared with Salacinol) was “at least twice as high”. For the same compound, at α-glucosidase (sucrase), the IC50 was 963 nM and the “α-glucosidase inhibiting activity (in words)” value is “very strong α-glucosidase inhibiting activity”.

In the case of `O=S(=O)([O-])OC(C(O)C[S+]1CC(O)C(O)C1CO)C(O)C(O)C(O)CO` (stereo not drawn) [Kotalanol, kotalanol], on α-glucosidase (sucrase), the IC50 was 424 nM and the “α-glucosidase inhibiting activity (in words)” value is “very strong α-glucosidase inhibiting activity”. Besides, the “α-glucosidase inhibiting activity compared with Glucobay” value with α-glucosidase is listed as “almost equivalent”.

For the compound `O=S(=O)([O-])O[C@H](CO)[C@@H](O)C[S+]1C[C@H](O)[C@@H](O)[C@@H]1CO` (stereo partly drawn) [Salacinol], at α-glucosidase (sucrase), half-maximal inhibition (IC50) was put at 2420 nM and the “α-glucosidase inhibiting activity (in words)” value is recorded as “very strong α-glucosidase inhibiting activity”. In the experiment on α-glucosidase, the “α-glucosidase inhibiting activity compared with Glucobay” value is “almost equivalent”.
